Like-named read-outs stand apart in the source and are kept apart here.
Columns and labels:
Human SIRT1 = target: T1, Human SIRT1 (Homo sapiens, UniProt Q96EB6); assay: SIRT1 mass spectrometry deacetylase assay; type: biochemical
T1 construct: hexa-histidine (N); made in house; host or cells: E. coli BL21(DE3)Star
T1 sequence (Q96EB6 1-747): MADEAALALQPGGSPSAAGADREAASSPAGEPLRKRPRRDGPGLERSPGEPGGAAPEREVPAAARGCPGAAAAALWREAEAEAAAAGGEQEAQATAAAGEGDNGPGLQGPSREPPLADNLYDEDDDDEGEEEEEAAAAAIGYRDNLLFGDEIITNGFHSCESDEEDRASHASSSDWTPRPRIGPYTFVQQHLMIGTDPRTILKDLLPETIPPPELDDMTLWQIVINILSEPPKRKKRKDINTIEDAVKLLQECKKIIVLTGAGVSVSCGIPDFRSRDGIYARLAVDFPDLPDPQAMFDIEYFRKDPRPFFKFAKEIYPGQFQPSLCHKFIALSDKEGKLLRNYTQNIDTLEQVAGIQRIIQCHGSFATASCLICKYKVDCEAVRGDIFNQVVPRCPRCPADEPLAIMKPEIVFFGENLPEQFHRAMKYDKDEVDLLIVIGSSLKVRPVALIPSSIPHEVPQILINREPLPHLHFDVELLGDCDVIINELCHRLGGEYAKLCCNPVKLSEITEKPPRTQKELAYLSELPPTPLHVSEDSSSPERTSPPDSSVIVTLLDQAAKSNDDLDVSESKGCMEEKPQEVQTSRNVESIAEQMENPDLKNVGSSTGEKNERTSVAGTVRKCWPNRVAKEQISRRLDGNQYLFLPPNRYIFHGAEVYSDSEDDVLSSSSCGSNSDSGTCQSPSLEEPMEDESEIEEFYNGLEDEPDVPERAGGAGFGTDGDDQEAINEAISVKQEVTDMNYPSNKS
From the text: The following example describes methods for the identification and characterization of Sirt1 activators. Human SIRT1 is expressed from the pSIRT1FL vector which places expression under the control of the T7 promoter. The protein was expressed in E. coli BL21(DE3)Star as an N-terminal fusion to a hexa-histidine affinity tag. The expressed protein was purified by Ni^2+-chelate chromatography. The eluted protein was then purified by size exclusion chromatography followed by ion exchange. The resulting protein was typically >95% pure as assessed by SDS-PAGE analysis. The mass spectrometry based assay utilizes a peptide having 20 amino acid residues as follows: Ac-Glu-Glu-Lys(Biotin)-[…]Ac)-Nle-Ser-Thr-Glu-Gly-Lys(5TMR)-Glu-Glu-NH2 (SEQ ID NO:2) wherein K(Ac) is an acetylated lysine residue and Nle is a norleucine. The peptide is labeled with the fluorophore 5TMR (excitation 540 nm/emission 580 nm) at the C-terminus for use in the FP assay described above. The sequence of the peptide substrate is based on p53 with several modifications.
The mass spectrometry assay was conducted as follows: 0.5 μM peptide substrate and 120 μM βNAD^+ was incubated with 10 nM SIRT1 for 25 minutes at 25° C. in a reaction buffer (50 mM Tris-acetate pH 8, 137 mM NaCl, 2.7 mM KCl, 1 mM MgCl2, 5 mM DTT, 0.05% BSA). Test compounds were added to the reaction or vehicle control, DMSO. After the incubation with SIRT1, 10% formic acid was added to stop the reaction. Determination of the mass of the substrate peptide allows for precise determination of the degree of acetylation (i.e. starting material) as compared to deacetylated peptide (product).
The activity of an exemplary compound against SIRT1 enzyme was profiled using a mass spectrometry readout. In this assay the conversion of acetylated peptide substrate to deacetylated peptide product is tracked by monitoring the change in mass ([…]) upon loss of the acetyl group. […]

[1] = Plasma exposure after oral gavage in mice; type: in vivo, C57BL/6 mice; settings: 100 mg/kg once daily by oral gavage, each day
Procedure: The following example describes the in vivo effects of a novel SIRT1 activator. The compound was administered via oral gavage at the doses indicated in FIG. 2a in […] male mice, 18-22 grams (Wilmington, Mass. Charles River Labs), 3 mice per group and blood plasma was collected at 5, 30, 120 and 360 minute time points. The compound was administered in 2% HPMC+0.2% DOSS. Mice were sacrificed at proper time points using CO2 overdose (place in CO2 chamber 40 seconds before time point). Blood was collected in microtainer blood tubes with Lithium Heparin and plasma separator and frozen plasma was sent to Charles River Labs (CRL) for analysis. To determine oral bioavalability, the compound was administered into the tail vein at 0.1, 0.3 and 1.0 mg/kg doses in C57BL/6 male mice, 18-22 grams (Wilmington, Mass. Charles River Labs), 3 mice per group and blood plasma was collected at 5, 30, 120 and 360 minute time points. Compounds were administered in 10% ethanol/ 40% Polyethylene glycol/50% H2O for IV studies. Mice were sacrificed at proper time points using CO2 overdose (place in CO2 chamber 40 seconds before time point). Blood was collected and analyzed as described above.

[2] = system: diet induced obese (DIO) mouse; assay: Diet Induced Obesity (DIO) mouse model; type: in vivo, C57BL/6 mice; settings: for plasma insulin: SRT1933 100 mg/kg, rosiglitazone 5 mg/kg once daily oral
Procedure: The vehicle used was 2% HPMC −0.2% DOSS. Individual mouse body weights were measured twice weekly. Every 2 weeks throughout the study, mice from each group were bled via the tail vein for determination of blood glucose and blood plasma insulin. After 1, 3 and 5 weeks of dosing, a fasted blood glucose measure was taken and after 5 weeks of treatment an IPGTT was conducted on all mice from each of the groups. After 9 weeks of treatment, an ITT was conducted and a rectal body temperature was taken on all mice from each of the groups. Statistical analysis was completed using the JMP program (Version 6). Data were analyzed by a one way ANOVA with comparison to control using a Dunnett's Test. A p value <0.05 indicated a significant difference between groups.

[3] = system: citrate synthase activity (mitochondrial capacity); assay: Citrate synthase activity in tissues of treated DIO mice; type: in vivo, C57BL/6 mice
Procedure: Citrate synthase (CS) activity in skeletal muscle (gastrocnemius) and white adipose tissue (epididymal) was determined after 11 weeks of treatment using the method described by Srere (Citrate synthase, Methods Enzymol. 1969, 13: 3-5) and Moyes et al. (Moyes CD, Mathieu-Costello 0A, Tsuchiya N, Filbum C, and Hansford RG. Mitochondrial biogenesis during cellular differentiation. Am. J. Physiol. 1997, 272 (Cell Physiol. 41): C1345-C1351.
Citrate Synthase is an enzyme of the Krebs cycle (also called […], TCA, or citric acid) cycle whose maximal activity (capacity) reflects mitochondrial oxidative capacity of the sample (Holloszy et al. 1970, Williams et al. 1986, Hood et al. 1989). […] Irrespective of this latter remark, changes in citrate synthase activity over time in a given individual reflect changes in tissue mitochondrial oxidative capacity. The five mice best representing the mean fasting blood glucose level of each group (DIO Vehicle and DIO SRT1933) were selected for this analysis. The tissues were lyzed in lx Extraction Buffer (20 mM N-2-hydroxyethylpiperazine-N′-2-2ethanesulfonic acid (HEPES), pH 7.2, 0.1% Triton X-100 and 1 mM EDTA with a polytron tissue homogenizer (OMNI International GLH) for 30 seconds at maximum speed (setting 6) on ice. A low-speed (13,000 rpm, microfuge) centrifugation step was then used to pellet big cell debris. The supernatant was used to assess citrate synthase activity. The samples are freeze-thawed 2 times to break the mitochondrial membrane and allow access to citrate synthase. Sample protein concentrations were determined according to the supplier's instructions, with Bio-Rad Protein Assay Dye Reagent Concentrate (cat#500-0006, […]) with Protein Standard I, bovine gamma globulin (cat#500-0005, […]) as standard. The citrate synthase activity assay was performed in a final total volume of 300 μl with 100 μg of protein per sample, measured in triplicate.
Citrate synthase catalyzes the reaction between acetyl coenzyme A (acetyl CoA) and oxaloacetic acid (OAA) to form citric acid. […]

[4] = system: diet induced obese (DIO) mouse; assay: Diet Induced Obesity (DIO) mouse model; type: in vivo, C57BL/6 mice; settings: DIO mice

SMILES | Emax (Human SIRT1; at the highest doses of compound tested, read-out: maximum activation) | EC1.5 (Human SIRT1; read-out: EC1.5 (concentration of compound required to increase enzyme activity by 50%), mass spectrometry readout, 10 nM SIRT1, 0.5 μM peptide substrate, 120 μM βNAD+) | EC1.5 (Human SIRT1; read-out: EC1.5, as quoted in legend of FIG. 2a) | duration of exposure above EC1.5 [1] | nonfasting blood glucose levels ([2]; DIO mice, 100 mg/kg once daily oral, by week 2, maintained over 10 week period) | insulin sensitivity relative to vehicle assessed by ITT ([2]; DIO mice, ITT after 9 weeks of treatment) | fasting blood glucose levels ([2]; DIO mice, once daily oral dosing) | plasma insulin ([2]; DIO mice) | body temperature ([2]; SRT1933 treated groups (FIG. 2f)) | lowering of core body temperature ([2]; both DIO mice and normal chow fed mice) | effect on insulin levels ([2]; mice fed a normal chow diet, over the course of the study) | increase in citrate synthase activity ([3]; gastrocnemius muscle, DIO mice, after 11 weeks of treatment) | citrate synthase activity in adipose tissue ([3]; n=5, after 11 weeks (FIG. 2g)) | mitochondrial capacity (citrate synthase activity) in skeletal muscle ([3]; n=5, after 11 weeks (FIG. 2g)) | glucose tolerance in an OGTT relative to vehicle [4] | glucose excursion in OGTT (AUC) ([4]; after 5 weeks of treatment, SRT1933 100 mg/kg, rosiglitazone 5 mg/kg once daily oral)
O=C(Nc1ccccc1-c1cn2c(CN3CCNCC3)csc2n1)c1cnc2ccccc2n1 [SRT1933] | > 900% | 160 nM | 440 nM | at least 16 hours | normalized | improvement in insulin sensitivity | normalized | 2.1 ± 0.1 ng/mL | decreased | ~1 °C | did not have a significant effect | 15% | trend | significant increase | improved glucose tolerance | 462 ± 25 mg·h/dL
CN(CCOc1ccc(CC2SC(=O)NC2=O)cc1)c1ccccn1 (centres unmarked) [rosiglitazone, reference compound] | – | – | – | – | – | – | – | 0.9 ± 0.1 ng/mL | – | – | – | – | – | – | – | –

From patent US20080249103A1, “Sirtuin polymorphisms and methods of use thereof” (Sirtris Pharmaceuticals, Inc., priority 2006, published 2008)
